# According to paper PMC8315060, “N-terminus-independent activation of c-Src via binding to a tetraspan(in) TM4SF5 in hepatocellular carcinoma is abolished by the TM4SF5 C-terminal peptide application” (Theranostics, 2021):
# Legend:
# Format in all cases: cell-based
# TM4SF5 = molecular target: T1, TM4SF5 (Homo sapiens, UniProt O14894); assay: Immunofluorescence of TM4SF5 localization after TSAHC; settings: TM4SF5-Flag cells, TSAHC 20 μM for 24 h, Figure 3E
# T1 construct: TM4SF5WT (NM-003963, 197 amino acids); expressed in transfected cells
# T1 sequence (O14894 1-197): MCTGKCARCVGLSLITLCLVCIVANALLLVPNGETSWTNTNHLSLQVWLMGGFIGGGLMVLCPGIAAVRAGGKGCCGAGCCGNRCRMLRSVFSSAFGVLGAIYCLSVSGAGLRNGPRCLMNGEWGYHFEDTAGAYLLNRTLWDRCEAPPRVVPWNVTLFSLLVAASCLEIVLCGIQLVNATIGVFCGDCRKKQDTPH
# Procedure: Indirect immunofluorescence: Cells maintained under normal culture conditions on glass coverslips were treated with peptides for 1 day in the absence or presence of 10 μM TSAHC, a specific TM4SF5 inhibitor [29]. The cells were incubated with either PBS (non-permeabilized) or 0.5% Triton X-100 in PBS (permeabilized) for 5 min at RT and then stained using an antibody against TAT (1:100 dilution, Cell Applications, Inc., San Diego, CA, USA). Cells treated with the CPPs were also fixed with 4% formaldehyde for 10 min at RT, incubated with 30 mM glycine for 30 min, permeabilized as described above, and then stained with antibodies against pY397FAK (Cat #: 611723, BD Transduction Laboratories, 1:500 dilution) or pY861FAK (sc-16663-R, Santa Cruz Biotechnology, 1:500 dilution). Phalloidin was also used to stain for F-actin. Immunofluorescent images were acquired on a confocal (Nikon eclipse Ti; Nikon, Melville, NY, USA) or a fluorescent microscope (BX51, Olympus, Japan).
# (§1) (A and B) SNU449 cells transiently transfected with the c-Src SH321 construct together with the indicated constructs were harvested (A). […] Quantitative comparison ratios were calculated from the blots by measurement of band intensities using Image J and normalization of them to those of loading controls. […]
# TM4SF5 binding to c-Src = molecular target: T2, TM4SF5 binding to c-Src (Homo sapiens, UniProt O14894); assay: TM4SF5 binding to c-Src after TSAHC treatment; settings: treatment of TSAHC, stated in the discussion
# T2 construct: TM4SF5WT (NM-003963, 197 amino acids); expressed in transfected cells
# T2 sequence (O14894 1-197): T1 sequence (O14894 1-197)
# Description: (A and B) SNU449 cells transiently transfected with the c-Src SH321 construct together with the indicated constructs were harvested (A). SNU761 cells stably expressing mock or FLAG-TM4SF5 were transiently transfected with the indicated constructs were harvested (B). The whole cell lysates (WCL) were precipitated with streptavidin beads, prior to immunoblotting. (C) SNU761 cells stably expressing mock or FLAG-TM4SF5WT (WT) were transiently transfected with the indicated construct and siRNAs against a scrambled sequence (siCont) or a sequence in PTP1B (siPTP1B). Immunoprecipitation from the WCL using anti-Flag-precoated sepharose beads was performed, before immunoblots. (D) SNU449 cells transfected with the indicated plasmids were processed for precipitation using streptavidin beads, prior to immunoblotting. (E) Stable SNU449 cells were treated with DMSO (-) or TSAHC (20 μM, +) for 24 h, before harvest, precipitation using streptavidin beads, and immunoblotting. Another cell set with TM4SF5-Flag and treated with DMSO or TSAHC as above was processed for immunofluorescence analysis. (F) SNU761 cells stably expressing TM4SF5WT were transiently transfected with the indicated siRNAs for 48 h, prior to transwell migration assay. […] Quantitative comparison ratios were calculated from the blots by measurement of band intensities using Image J and normalization of them to those of loading controls. […]
# PTP1B binding to TM4SF5 = molecular target: T3, PTP1B binding to TM4SF5 (Homo sapiens, UniProt O14894); assay: Streptavidin pull-down of STrEP-TM4SF5 and immunoblot for PTP1B after TSAHC; settings: stable SNU449 cells, TSAHC 20 μM for 24 h, immunoblot, Figure 3E
# T3 construct: TM4SF5WT (NM-003963, 197 amino acids); expressed in transfected cells; host or cells: SNU449 cells stably expressing STrEP-TM4SF5
# T3 sequence (O14894 1-197): T1 sequence (O14894 1-197)
# Description: Co-immunoprecipitation: Whole cell extracts were precipitated with anti-FLAG antibody (Cell Signaling Technology) or […]-precoated beads (Sigma-Aldrich) in a cold room overnight prior to immunoblotting with the indicated antibodies. For co-immunoprecipitation of endogenous proteins, whole cell lysates of endogenous TM4SF5-expressing HepG2 cells were precipitated with either anti-TM4SF5 [27] or c-Src (sc-8056, clone H-12) antibody prior to immunoblotting for FAK, c-Src, and TM4SF5. Immunoprecipitated proteins were boiled in 2× SDS-PAGE sample buffer before undergoing western blotting using standard protocols. Quantification of band intensity was performed as described above.
# as §1, with “(A). SNU761 cells stably expressing mock or FLAG-TM4SF5 were transiently transfected with the indicated constructs were harvested (B). The whole cell lysates (WCL) were precipitated with streptavidin beads, prior to immunoblotting.” for “(A).”
compound,measurement,setting,value
"Cc1ccc(S(=O)(=O)Nc2ccc(C(=O)C=Cc3ccc(O)cc3)cc2)cc1 [TSAHC, 4-(p-toluenesulfonylamido)-4-hydroxychalcone]",membrane localization of TM4SF5,TM4SF5,still showed membrane localization of TM4SF5
same,TM4SF5 binding to c-Src,TM4SF5 binding to c-Src,impaired TM4SF5 binding to c-Src
same,PTP1B binding to TM4SF5,PTP1B binding to TM4SF5,reduced substantially
